Measurements reported in patent US20230072421A1, “TARGETED RADIOPHARMACEUTICALS FOR THE DIAGNOSIS AND TREATMENT OF PROSTATE CANCER” (Bayer AS, priority 2019, published 2023).

What was measured:
[1] = system: VCaP cells; test: Cell proliferation assay (CellTiter-Glo, 5-day exposure), VCaP; assay type: cell-based; settings: 4000 cells/well, Th-227 labelled at 375 kBq/nmol, mean of 1 to 6 experiments
Method: (§1) Inhibition of cell proliferation of Thorium-227 labeled PMSA SMOL ligands was tested different prostate cancer cell lines, namely 22Rv1, VCaP, C4-2 (all from ATCC, Manassas, Va., USA) and LNCaP (DMSZ, Braunschweig). Cells were seeded using the following conditions in 384 well plates (Corning) in 30 μl of growth media at 4000 cells/well for VCaP cells and 1000 cells/well for 22Rv1, C4-2 and LNCaP cells.
(§2) Cells were cultivated an incubator at 37° C. and 5% C02 over night. […] In sister plates cell viability at treatment start (d=0) was determined using CellTiter-Glo® assay (CTG, Promega, Madison, Wis., USA), by adding 30 μl per well CTG solution, incubation for 10 min and reading of Luminescence in a PheraStarFSX instrument (BMG Labtech). After a 5-day exposure in the presenced of test compounds, cell viability of treated or untreated control cells was determined again using CellTiter-Glo® assay (Promega, Madison, Wis., USA). […] The DRC software is a Biobook Spreadsheet that was developed by Bayer AG and Bayer Business Services on the IDBS E-Workbook Suite platform (IDBS: ID Business Solutions Ltd., Guildford, UK).

[2] = system: C4-2 cells; test: Cell proliferation assay (CellTiter-Glo, 5-day exposure), C4-2; assay type: cell-based; settings: C4-2, 1000 cells/well, Th-227 labelled at 375 kBq/nmol, mean of 1 to 6 experiments
Method: as §1, §2

[3] = system: 22Rv1 cells; test: Cell proliferation assay (CellTiter-Glo, 5-day exposure), 22Rv1; assay type: cell-based; settings: 22Rv1, 1000 cells/well, Th-227 labelled at 375 kBq/nmol, mean of 1 to 6 experiments
Method: as §1, §2

[4] = target: T1, PSMA-expressing LNCaP cells (Homo sapiens, UniProt Q04609); test: Binding competition assay against 3H-PSMA-617 on LNCaP cells; settings: for remaining activity at 0.01 µM / remaining activity at 0.1 µM: 10 nM 3H-PSMA-617, 2 h at 37° C., triplicates; for remaining activity at 0.01 µM: competing non-radiolabeled compound 10 nM; for remaining activity at 0.1 µM: competing non-radiolabeled compound 100 nM
T1 construct: PSMA-expressing LNCaP cells; endogenous in cells; host or cells: LNCaP
Procedure, shortened: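 Compounds added to LNCaP cells in growth medium, 2 h at 37 °C, 5% CO2. After two ice-cold PBS washes, cells lysed in 0.3 M NaOH and bound radioactivity measured by liquid scintillation counting.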

T1 sequence (Q04609 whole entry): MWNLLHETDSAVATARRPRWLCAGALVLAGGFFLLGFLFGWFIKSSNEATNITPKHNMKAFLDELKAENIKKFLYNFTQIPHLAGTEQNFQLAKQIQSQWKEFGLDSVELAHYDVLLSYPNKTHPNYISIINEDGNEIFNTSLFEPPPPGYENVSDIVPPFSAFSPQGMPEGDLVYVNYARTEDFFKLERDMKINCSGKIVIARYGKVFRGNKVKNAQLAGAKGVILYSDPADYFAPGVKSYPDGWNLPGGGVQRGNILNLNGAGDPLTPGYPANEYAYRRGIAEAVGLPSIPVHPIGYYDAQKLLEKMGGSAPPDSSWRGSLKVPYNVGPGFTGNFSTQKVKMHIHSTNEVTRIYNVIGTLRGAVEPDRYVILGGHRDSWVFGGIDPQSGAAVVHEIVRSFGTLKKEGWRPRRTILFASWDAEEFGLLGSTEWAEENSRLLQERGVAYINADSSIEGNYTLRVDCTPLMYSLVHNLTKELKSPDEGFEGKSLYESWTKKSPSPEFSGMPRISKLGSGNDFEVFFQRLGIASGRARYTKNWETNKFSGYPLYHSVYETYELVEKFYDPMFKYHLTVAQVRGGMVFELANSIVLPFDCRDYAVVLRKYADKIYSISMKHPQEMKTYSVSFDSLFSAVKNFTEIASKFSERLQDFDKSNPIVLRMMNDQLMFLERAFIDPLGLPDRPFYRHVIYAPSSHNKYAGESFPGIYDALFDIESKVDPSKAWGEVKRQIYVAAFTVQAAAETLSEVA

remaining activity at 0.01 µM ([4]; LNCaP cells) [%] | remaining activity at 0.1 µM ([4]; LNCaP cells) [%] | SMILES | further results
 |  | Cc1cc(C(=O)NCCN(CCCN(CCNC(=O)c2cc(C)n(CC(=O)NCC3CCC(C(=O)NC(Cc4ccc5ccccc5c4)C(=O)NCCCCC(NC(=O)NC(CCC(=O)O)C(=O)O)C(=O)O)CC3)c(=O)c2[O-])CCNC(=O)c2cc(C)n(CC(=O)NCC3CCC(C(=O)NC(Cc4ccc5ccccc5c4)C(=O)NCCCCC(NC(=O)NC(CCC(=O)O)C(=O)O)C(=O)O)CC3)c(=O)c2[O-])CCNC(=O)c2cc(C)n(CC(=O)NCC3CCC(C(=O)NC(Cc4ccc5ccccc5c4)C(=O)NCCCCC(NC(=O)NC(CCC(=O)O)C(=O)O)C(=O)O)CC3)c(=O)c2[O-])c([O-])c(=O)n1CC(=O)O.[227Th+4] (stereo not shown) [1-C trimer-227Th] | Proliferation assay on cancer cell lines by TTCs Default Pivot #3 IC50 [kBq/mL] VCap 4000cells 375kBq/nmol (mean) [1]: 3.11 kBq/mL; Proliferation assay on cancer cell lines by TTCs Default Pivot #3 IC50 [kBq/mL] C4-2 1000cells 375kBq/nmol (mean) [2]: 2.24 kBq/mL; Proliferation assay on cancer cell lines by TTCs Default Pivot #3 IC50 [kBq/mL] 22Rv1 1000cells 375kBq/nmol (mean) [3]: 0.74 kBq/mL
 |  | O=C([O-])CN1CCN(CC(=O)[O-])CCN(CC(=O)NCc2ccc(C(=O)N[C@@H](Cc3ccc4ccccc4c3)C(=O)NCCCC[C@H](NC(=O)N[C@@H](CCC(=O)O)C(=O)O)C(=O)O)nc2)CCN(CC(=O)[O-])CC1.[227Th+4] [Example 25-B-227Th, [^227Th]Thorium (3S,10S,14S)-3-[(naphthalen-2-yl)methyl]-1,4,12-trioxo-1-{5-[(2-{4,7,10-tris[(carboxy-kappaO)methyl]-1,4,7,10-tetraazacyclododecan-1-yl-kappa^4N^1,N^4,N^7,N^10}acetamido)methyl]pyridin-2-yl}-2,5,11,13-tetraazahexadecane-10,14,16-tricarboxylate] | Proliferation assay on cancer cell lines by TTCs Default Pivot #3 IC50 [kBq/mL] VCap 4000cells 375kBq/nmol (mean) [1]: 1.51 kBq/mL; Proliferation assay on cancer cell lines by TTCs Default Pivot #3 IC50 [kBq/mL] C4-2 1000cells 375kBq/nmol (mean) [2]: 0.1 kBq/mL; Proliferation assay on cancer cell lines by TTCs Default Pivot #3 IC50 [kBq/mL] 22Rv1 1000cells 375kBq/nmol (mean) [3]: 0.73 kBq/mL
 |  | O=C([O-])CN1CCN(CC(=O)[O-])CCN(CC(=O)Nc2ccc(CC(=O)N[C@@H](Cc3ccc4ccccc4c3)C(=O)NCCCC[C@H](NC(=O)N[C@@H](CCC(=O)O)C(=O)O)C(=O)O)cc2)CCN(CC(=O)[O-])CC1.[227Th+4] [Example 23-B-227Th, [^227Th]Thorium-(4S,11S,15S)-4-[(naphthalen-2-yl)methyl]-2,5,13-trioxo-1-[4-(2-{4,7,10-tris[(carboxy-kappaO)methyl]-1,4,7,10-tetraazacyclododecan-1-yl-kappa^4N^1,N^4,N^7,N^10}acetamido)phenyl]-3,6,12,14-tetraazaheptadecane-11,15,17-tricarboxylate] | Proliferation assay on cancer cell lines by TTCs Default Pivot #3 IC50 [kBq/mL] VCap 4000cells 375kBq/nmol (mean) [1]: 3 kBq/mL; Proliferation assay on cancer cell lines by TTCs Default Pivot #3 IC50 [kBq/mL] C4-2 1000cells 375kBq/nmol (mean) [2]: 1.32 kBq/mL; Proliferation assay on cancer cell lines by TTCs Default Pivot #3 IC50 [kBq/mL] 22Rv1 1000cells 375kBq/nmol (mean) [3]: 0.96 kBq/mL
158 | 128 | Cc1ccccc1C[C@H](NC(=O)[C@H]1CC[C@H](CN)CC1)C(=O)NCCCC[C@H](NC(=O)N[C@@H](CCC(=O)O)C(=O)O)C(=O)O [Example 12-A, N^6—{N-[(1r,4S)-4-(aminomethyl)cyclohexane-1-carbonyl]-2-methyl-L-phenylalanyl}-N^2-{[(1S)-1,3-dicarboxypropyl]carbamoyl}-L-lysine] | 
 |  | O=C(O)CC[C@H](NC(=O)N[C@@H](CCCCNC(=O)[C@H](Cc1ccc2ccccc2c1)NC(=O)[C@H]1CC[C@H](CNC(=O)CN2CCN(CC(=O)O)CCN(CC(=O)O)CCN(CC(=O)O)CC2)CC1)C(=O)O)C(=O)O [PSMA-617, reference compound] | Non-specific binding: remaining binding of 3H-PSMA-617 in the presence of unlabeled PSMA-617 ([4]; unlabeled PSMA-617 at 5000 nM (500 fold excess), LNCaP cells): below 5%
94 | 43 | NC1CC2(C1)CC(C(=O)N[C@@H](Cc1ccc3ccccc3c1)C(=O)NCCCC[C@H](NC(=O)N[C@@H](CCC(=O)O)C(=O)O)C(=O)O)C2 (stereo partly drawn) [Example 47-A, (3S,10S,14S)-1-(6-aminospiro[3.3]heptan-2-yl)-3-[(naphthalen-2-yl)methyl]-1,4,12-trioxo-2,5,11,13-tetraazahexadecane-10,14,16-tricarboxylic acid] | 
117 | 146 | CC(=O)NCCCC[C@H](NC(=O)[C@H]1CC[C@H](CN)CC1)C(=O)NCCCC[C@H](NC(=O)N[C@@H](CCC(=O)O)C(=O)O)C(=O)O [Example 11-A, N^6—{N^6-acetyl-N^2-[(1r,4S)-4-(aminomethyl)cyclohexane-1-carbonyl]-L-lysyl}-N^2-{[(1S)-1,3-dicarboxypropyl]carbamoyl}-L-lysine] | 
80 | 78 | O=C(O)CC[C@@H](NC(=O)N[C@@H](CCCCNC(=O)[C@H](Cc1ccc2ccccc2c1)NC(=O)[C@H]1CC[C@H](CNC(=O)CN2CCN(CC(=O)O)CCN(CC(=O)O)CCN(CC(=O)O)CC2)CC1)C(=O)O)C(=O)O [Example 1-B-D, (3S,10S,14R)-3-[(naphthalen-2-yl)methyl]-1,4,12-trioxo-1-[(1r,4S)-4-({2-[4,7,10-tris(carboxymethyl)-1,4,7,10-tetraazacyclododecan-1-yl]acetamido}methyl)cyclohexyl]-2,5,11,13-tetraazahexadecane-10,14,16-tricarboxylic acid] | 
84 | 46 | NCc1ccc(C(=O)N[C@@H](Cc2cnc3ccccc3c2)C(=O)NCCCC[C@H](NC(=O)N[C@@H](CCC(=O)O)C(=O)O)C(=O)O)nc1 [Example 32-A, N^6—{N-[5-(aminomethyl)pyridine-2-carbonyl]-3-(quinolin-3-yl)-L-alanyl}-N^2-{[(1S)-1,3-dicarboxypropyl]carbamoyl}-L-lysine] | 
78 | 79 | NC[C@H]1CC[C@H](C(=O)N[C@@H](Cc2ccc(C3CCC3)cc2)C(=O)NCCCC[C@H](NC(=O)N[C@@H](CCC(=O)O)C(=O)O)C(=O)O)CC1 [Example 18-A, N^6—{N-[(1r,4S)-4-(aminomethyl)cyclohexane-1-carbonyl]-4-cyclobutyl-L-phenylalanyl}-N^2-{[(1S)-1,3-dicarboxypropyl]carbamoyl}-L-lysine] | 
90 | 47 | O=C(O)CC[C@H](NC(=O)N[C@@H](CCCCNC(=O)[C@@H](Cc1ccc2cccnc2c1)NC(=O)[C@H]1CC[C@H](CNC(=O)CN2CCN(CC(=O)O)CCN(CC(=O)O)CCN(CC(=O)O)CC2)CC1)C(=O)O)C(=O)O [Example 45-B, (3R,10S,14S)-1,4,12-trioxo-3-[(quinolin-7-yl)methyl]-1-[(1r,4S)-4-({2-[4,7,10-tris(carboxymethyl)-1,4,7,10-tetraazacyclododecan-1-yl]acetamido}methyl)cyclohexyl]-2,5,11,13-tetraazahexadecane-10,14,16-tricarboxylic acid] | 

SMILES | remaining activity at 0.01 µM ([4]; LNCaP cells) [%] | remaining activity at 0.1 µM ([4]; LNCaP cells) [%] | further results
NC[C@H]1CC[C@H](C(=O)N[C@@H](CCCCNC(=O)c2cccnc2)C(=O)NCCCC[C@H](NC(=O)N[C@@H](CCC(=O)O)C(=O)O)C(=O)O)CC1 [Example 9-A, N^6—{N^2-[(1r,4S)-4-(aminomethyl)cyclohexane-1-carbonyl]-N^6-(pyridine-3-carbonyl)-L-lysyl}-N^2-{[(1S)-1,3-dicarboxypropyl]carbamoyl}-L-lysine] | 147 | 114 | 
COc1c(C[C@@H](NC(=O)c2ccc(CNC(=O)CN3CCN(CC(=O)O)CCN(CC(=O)O)CCN(CC(=O)O)CC3)cn2)C(=O)NCCCC[C@H](NC(=O)N[C@@H](CCC(=O)O)C(=O)O)C(=O)O)ccc2ccccc12 [Example 33a-B, (3R,10S,14S)-3-[(1-methoxynaphthalen-2-yl)methyl]-1,4,12-trioxo-1-[5-({2-[4,7,10-tris(carboxymethyl)-1,4,7,10-tetraazacyclododecan-1-yl]acetamido}methyl)pyridin-2-yl]-2,5,11,13-tetraazahexadecane-10,14,16-tricarboxylic acid] | 74 | 42 | 
O=C(O)CC[C@H](NC(=O)N[C@@H](CCCCNC(=O)[C@H](Cc1ccc2ccccc2c1)NC(=O)c1ccc(CNC(=O)CN2CCN(CC(=O)O)CCN(CC(=O)O)CCN(CC(=O)O)CC2)nc1)C(=O)O)C(=O)O [Example 26-B, (3S,10S,14S)-3-[(naphthalen-2-yl)methyl]-1,4,12-trioxo-1-[6-({2-[4,7,10-tris(carboxymethyl)-1,4,7,10-tetraazacyclododecan-1-yl]acetamido}methyl)pyridin-3-yl]-2,5,11,13-tetraazahexadecane-10,14,16-tricarboxylic acid] | 53 | 6 | competition against 3H-PSMA-617 on PSMA-expressing LNCaP cells (in words) ([4]; comparison between examples): improved competition in comparison to the cyclohexyl examples 1-A and 1-B
